Test results from patent US20260373038A1, “A PERSONAL CARE COMPOSITION” (Conopco, Inc., d/b/a UNILEVER, priority 2022, published 2026).

Test system: collagen type I alpha I chain (COL1A1) gene, normal human dermal fibroblasts (NHDF)
Test: Fold change in gene expression of COL1A1 in normal human dermal fibroblasts (qPCR, normalized to ACTB)
Type: cell-based
Conditions: 48 hours, relative to blank control (1.0)
Procedure: The normal human dermal fibroblasts (NHDF) (Biocell, Xi'an, China, Lot: Fb20081902) were incubated in medium together with or without actives for 48 hours. After incubation, the total RNA for each NHDF was extracted using RNAex Pro reagent (Accurate Biotechnology, Cat: AG21102) according to manufacturer's protocol.
The extracted RNA was quantified using Nanodrop spectrometer (Thermo Fisher Scientific, Waltham, MA, US) and reverse transcribed to generate the template cDNA using the Evo M-MLV RT Premix for qPCR (Accurate Biotechnology, Cat: AG11706) according to manufacturer's protocol. Gene expression of COL1A1 gene was analyzed by polymerase chain reaction (PCR) using SYBR® Green Premix Pro Taq HS qPCR Kit (Accurate Biotechnology, AG11701). The actin beta (ACTB) gene was selected as the housekeeping gene and all data on relative expression of the target genes was normalized to ACTB gene. The fold changes in expression were calculated relative to the blank control (medium having no active).

Row | Fold change of COL1A1 expression (5 μM of LCC (group D)) [fold change] | Fold change of COL1A1 expression (10 μM of LCC (group G)) [fold change] | Fold change of COL1A1 expression (50 μM of LCC (group A)) [fold change] | Fold change of COL1A1 expression (1 μM of RP (group B)) [fold change] | Fold change of COL1A1 expression (10 μM of RP (group E)) [fold change] | Compound
1 | 1.4 | 1.5 | 1.3 | – | – | Lysine carboxymethyl cysteinate [LCC]
2 | – | – | – | 1.4 | 1.5 | CCC(=O)OC/C=C(C)/C=C/C=C(C)/C=C/C1=C(C)CCCC1(C)C [RP, Retinyl propionate]
